Laboratory results reported in patent publication US6140487A (Kabushiki Kaisha Hayashibara Seibutsu Kagaku Kenkyujo, priority 1996, dated 2000).

tested on: 7week-old dd-strain mice; assay: Acute toxicity test, oral administration; assay type: in vivo; conditions: powdery product rich in the saccharide, maximum dose 50 g/kg mouse by weight
Description: Acute toxicity test of the powdery products rich in glucosylsorbose, kojitriose, kojibiosylglucoside, and kojibiosylfructoside in Experiments 8-12 were tested in 7week-old dd-strain mice by administering orally. As a result, no mouse died even when administered with their maximum doses, i.e., 50 g/kg mouse by weight.

Row | Compound | Acute toxicity: death of mice
1 | OC[C@H]1O[C@@](CO)(O[C@H]2O[C@H](CO)[C@@H](O)[C@H](O)[C@H]2O[C@H]2O[C@H](CO)[C@@H](O)[C@H](O)[C@H]2O)[C@@H](O)[C@@H]1O [kojibiosylfructoside, α-D-glucosyl-(1→2)-α-D-glucosyl-(1→2)-β-D-fructoside] | no mouse died
2 | OC[C@H]1O[C@H](O[C@H]2O[C@H](CO)[C@@H](O)[C@H](O)[C@H]2O[C@H]2O[C@H](CO)[C@@H](O)[C@H](O)[C@H]2O)[C@H](O)[C@@H](O)[C@@H]1O [kojibiosylglucoside, α-D-glucosyl-(1→2)-α-D-glucosyl-(1,1)-α-D-glucoside] | no mouse died
3 | O=C(CO)[C@@H](O)[C@H](O)[C@H](CO)O[C@H]1O[C@H](CO)[C@@H](O)[C@H](O)[C@H]1O [glucosylsorbose, α-D-glucosyl-(1→5)-L-sorbose] | no mouse died
4 | OC[C@H]1O[C@H](O[C@H]2[C@@H](O[C@H]3C(O)O[C@H](CO)[C@@H](O)[C@@H]3O)O[C@H](CO)[C@@H](O)[C@@H]2O)[C@H](O)[C@@H](O)[C@@H]1O (stereo partly drawn) [kojitriose, α-D-glucosyl-(1→2)-α-D-glucosyl-(1→2)-D-glucose] | no mouse died

biological target: T1, kojibiose phosphorylase (Thermoanaerobacter brockii, UniProt Q8L163); assay: Substrate specificity for saccharide-hydrolyzing reaction by kojibiose phosphorylase (TLC); conditions: summary of Table 1
T1 sequence (Q8L163 1-775): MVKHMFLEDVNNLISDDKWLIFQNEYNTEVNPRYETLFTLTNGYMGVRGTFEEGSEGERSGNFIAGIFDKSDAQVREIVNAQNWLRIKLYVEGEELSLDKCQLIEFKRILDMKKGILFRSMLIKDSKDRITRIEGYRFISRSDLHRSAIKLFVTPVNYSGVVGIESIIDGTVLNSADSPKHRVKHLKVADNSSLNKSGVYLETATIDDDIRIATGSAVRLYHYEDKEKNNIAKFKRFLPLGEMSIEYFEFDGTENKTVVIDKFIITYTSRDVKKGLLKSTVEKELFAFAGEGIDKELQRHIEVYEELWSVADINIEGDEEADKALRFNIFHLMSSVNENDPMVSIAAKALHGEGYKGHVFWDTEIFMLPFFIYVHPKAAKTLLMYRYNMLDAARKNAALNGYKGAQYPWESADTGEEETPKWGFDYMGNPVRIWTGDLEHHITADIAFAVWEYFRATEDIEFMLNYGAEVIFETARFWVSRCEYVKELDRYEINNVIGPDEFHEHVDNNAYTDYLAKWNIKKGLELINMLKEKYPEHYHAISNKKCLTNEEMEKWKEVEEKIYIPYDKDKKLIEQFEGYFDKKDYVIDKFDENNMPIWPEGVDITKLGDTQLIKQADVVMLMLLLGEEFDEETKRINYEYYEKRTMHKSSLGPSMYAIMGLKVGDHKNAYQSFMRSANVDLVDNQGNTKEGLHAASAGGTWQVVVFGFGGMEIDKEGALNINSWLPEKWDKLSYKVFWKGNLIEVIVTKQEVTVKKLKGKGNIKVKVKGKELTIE
Description: The saccharide concentration of each reaction solution was 2 w/v %. Pre-reaction solutions and post-reaction mixtures were subjected to thin layer chromatography (hereinafter abbreviated as "TLC") using "[sequence] 60 (20×20 cm)", an aluminum plate for TLC commercialized by Merck & Co., Inc., Rahway, USA. Samples were developed once at ambient temperature on the plate using 1-butanol/pyridine/water (=7:3:1 by volume) as a developing solvent system, and the plate was sprayed with 20 v/v % sulfuric acid/methanol solution, and heated at 110° C. for about 10 min for coloration. Comparing spots of the solutions and mixtures detected on the plates, it was checked whether the enzyme acted on the saccharides.

Row | Compound | Action of kojibiose phosphorylase on the saccharide (substrate specificity, in words)
5 | OC[C@H]1O[C@H](O[C@H]2C(O)O[C@H](CO)[C@@H](O)[C@@H]2O)[C@H](O)[C@@H](O)[C@@H]1O (stereo partly drawn) [Kojibiose] | acted on it

biological target: T1, kojibiose phosphorylase; assay: Specificity to acceptor in glucosyl-transferred saccharide-forming reaction by kojibiose phosphorylase (TLC); assay type: biochemical, Thermoanaerobium brockii, ATCC 35047; design: made in house; host or cells: Thermoanaerobium brockii, ATCC 35047 (natural producer, not recombinant; cell lysate purified by column chromatography); conditions: summary of Table 2
Description: The concentrations of the acceptors and the saccharide donors were adjusted to one w/v %. Similarly as in Experiment 5, the pre-reaction solutions and the post reaction mixtures were subjected to TLC, followed by coloring the plates. […] By macroscopically observing the coloration degree of the newly detected spots, the yield of the transferred saccharides was relatively evaluated.

Row | Compound | Transfer of glucosyl group from β-D-glucose-1-phosphoric acid to the acceptor (in words)
6 | OC[C@H]1O[C@H](O[C@H]2[C@H](O)[C@@H](O)[C@H](O)O[C@@H]2CO)[C@H](O)[C@@H](O)[C@@H]1O [Maltose] | effectively transferred glucosyl group
7 | OC[C@H]1O[C@H](O[C@H]2[C@H](O)[C@@H](O)[C@@H](O[C@H]3[C@H](O)[C@@H](O)[C@@H](O[C@H]4[C@H](O)[C@@H](O)[C@@H](O[C@H]5[C@H](O)[C@@H](O)C(O)O[C@@H]5CO)O[C@@H]4CO)O[C@@H]3CO)O[C@@H]2CO)[C@H](O)[C@@H](O)[C@@H]1O (stereo partly drawn) [Maltopentaose] | effectively transferred glucosyl group
8 | OC[C@H]1O[C@H](O[C@H]2[C@H](O)[C@@H](O)[C@@H](O[C@H]3[C@H](O)[C@@H](O)C(O)O[C@@H]3CO)O[C@@H]2CO)[C@H](O)[C@@H](O)[C@@H]1O (stereo partly drawn) [Maltotriose] | effectively transferred glucosyl group
9 | OC[C@H]1OC(O)[C@H](O)[C@@H](O)[C@@H]1O (stereo partly drawn) [D-Glucose] | effectively transferred glucosyl group
10 | OC[C@H]1O[C@H](O[C@H]2C(O)O[C@H](CO)[C@@H](O)[C@@H]2O)[C@H](O)[C@@H](O)[C@@H]1O (stereo partly drawn) [Kojibiose] | effectively transferred glucosyl group
11 | OCC1(O)OC[C@H](O)[C@@H](O)[C@@H]1O (stereo partly drawn) [L-Sorbose] | effectively transferred glucosyl group
12 | OC[C@H]1O[C@H](O[C@H]2[C@H](O)[C@@H](O)[C@@H](O[C@H]3[C@H](O)[C@@H](O)[C@@H](O[C@H]4[C@H](O)[C@@H](O)C(O)O[C@@H]4CO)O[C@@H]3CO)O[C@@H]2CO)[C@H](O)[C@@H](O)[C@@H]1O (stereo partly drawn) [Maltotetraose] | effectively transferred glucosyl group
13 | OC[C@H]1O[C@H](O[C@H]2O[C@H](CO)[C@@H](O)[C@H](O)[C@H]2O)[C@H](O)[C@@H](O)[C@@H]1O [Trehalose] | effectively transferred glucosyl group
14 | OC[C@H]1O[C@@](CO)(O[C@H]2O[C@H](CO)[C@@H](O)[C@H](O)[C@H]2O)[C@@H](O)[C@@H]1O [Sucrose] | effectively transferred glucosyl group

same assay, conditions: used in place of β-D-glucose-1-phosphoric acid

Row | Compound | Formation of glucosyl-transferred saccharide with the substance as saccharide donor
15 | O=P(O)(O)O[C@H]1O[C@H](CO)[C@@H](O)[C@H](O)[C@H]1O [α-D-glucose-1-phosphoric acid] | No glucosyl-transferred saccharide was formed
